From patent US12653880B2, “SARS-CoV-2 polypeptides” (priority 2021, dated 2026)

Legend:
[1] = tested on: golden Syrian hamsters; assay: IFN-γ ELISPOT of spleen and lymph node cells from immunized hamsters; assay type: in vivo; conditions: listed in rank order
[2] = tested on: golden Syrian hamsters; assay: Peptide-specific antibody ELISA of sera from immunized hamsters; assay type: in vivo; conditions: listed in rank order
Procedure: Female golden Syrian hamsters (Charles River Laboratories, Wilmington, Mass.) are immunized with a 2-dose regimen with a 14-day interval between doses. Two weeks after the second dose, hamsters are euthanized. Hamster blood is collected by cardiac puncture and serum is prepared for the quantification of peptide-specific antibodies by an in-house indirect ELISA method. Spleens and draining lymph nodes serve as a source of cells for the IFN-γ ELISPOT and other assays. Unless otherwise noted, water-in-oil emulsions are administered subcutaneously, all other adjuvant formulations are administered intramuscularly.
A total of 52 peptides are tested for immunogenicity. Antibody responses in hamster sera specimens to individual peptides or peptide pools are quantified by ELISA.
Briefly, Immulon 4 HBX 96-well plates for ELISA are obtained from Thermo Fisher Scientific (Waltham, Mass.). The plate is coated with 1 μg/well of either a pool of peptides or individual peptides in coating buffer (50 mM sodium carbonate, pH 9.6) overnight at 4° C. […] Optical density at 450 nm (OD450) is read within 15 minutes after adding H2SO4 using a Spectramax® ABS Plus microplate reader (Molecular Devices, San Jose, Calif.) and the SoftMax® 7 Pro Software.

[3] = tested on: C57BL/6J mice; assay: Antibody ELISA of sera from immunized mice; assay type: in vivo; conditions: listed in rank order
Procedure: Briefly, Immulon 4 HBX 96-well plates for ELISA are obtained from Thermo Fisher Scientific (Waltham, Mass.). The plate is coated with 1 μg/well of either a pool of peptides or individual peptides in coating buffer (50 mM sodium carbonate, pH 9.6) overnight at 4° C. After the coating buffer is removed, the plate is blocked with 2% BSA in PBS for 1 hour at room temperature, followed by washing three times with 0.5% Tween in PBS (PBST). Sera are diluted 1:200 in PBS and added to each well and the plate is incubated for 2 hours at room temperature. After incubation, the plate is washed three times with PBST. The secondary antibody is conjugated with HRP, and iss added at a 1:10,000 dilution in PBS. The plate is incubated for 1 hour at room temperature. After washing three times with PBST, TMBE-100 peroxidase substrate (Rockland Immunochemicals, Inc., Limerick, Pa.) is added, followed by 30 minutes incubation at room temperature. Finally, the enzymatic reaction is stopped by adding 2M H2SO4. Optical density at 450 nm (OD450) is read within 15 minutes after adding H2SO4 using a Spectramax® ABS Plus microplate reader (Molecular Devices, San Jose, Calif.) and the SoftMax® 7 Pro Software. […]

[4] = tested on: rVSV-SARS-CoV-2-S virus; conditions: in vivo

| Sequence | Hamsters ELISPOT: top 10 immunogenic peptides, ranked on magnitude of responses [1] | Hamsters ELISA: top 10 immunogenic peptides, ranked on magnitude of responses [2] | Mice ELISA: top 10 immunogenic peptides, ranked on magnitude of responses [3] | neutralization activity of peptide-specific antibody [4] |
| --- | --- | --- | --- | --- |
| PQIQLAVTRMENAVGRD [ORF9b.1*11] | ORF9b.1*11 | ORF9b.1*11 | ORF9b.1*11 |  |
| YFTSDYYQLYSTQLSTDTGV [ORF3a] | ORF3a | ORF3a | ORF3a |  |
| SRIGMEVTPSGTWLTYTGAIKLDDKDPNFKDQVILLNKHIDAYK (N-overlap Long) |  |  |  | non-specific background |
